{"source": "paper PMC12169614", "about": "“Exploring Long Arm Amide-Linked Side Chains in the Design of Antifungal Azole Inhibitors of Sterol 14α-Demethylase (CYP51)” (Journal of Medicinal Chemistry, 2025)", "key": {"[1]": {"system": "Y2411 azole sensitive control strain", "assay": "Agarose (disk) diffusion assay, strain Y2411", "format": "cell-based, S. cerevisiae", "conditions": "10 nmol/disk, 30 °C, 48 h", "source_text": "Final compounds were screened as racemic mixtures using agarose diffusion assays to visualize their inhibitory activity against a panel of recombinant S. cerevisiae strains i.e., S. cerevisiae strains expressing control levels of wild-type CYP51 (ScCYP51), overexpressed wild-type ScCYP51, overexpressed azole-resistant ScCYP51 Y140F/H mutations and overexpressed C. albicans efflux pumps MDR1a or CDR1B (Figure and Table S1).\nThe susceptibilities of S. cerevisiae and Candida species strains to azole compounds were observed as zones of growth inhibition in agarose diffusion assays. The disk diffusion assays were carried out as described by Keniya et al. Complete supplement mixture (CSM) agarose (0.6% agarose [wt/vol]; 20 mL of synthetic defined medium (SD); pH 6.8–7) was solidified in a rectangular Petri dish which was overlaid with CSM agarose (0.6% [wt/vol]; 5 mL; pH 6.8–7) seeded with yeast cells at an optical density (OD600) of 0.008 (118,000 cells per 1 mL of overlay). Azole compounds (10 nmol/disk) were applied to sterile BBL paper disks (Becton Dickinson Co., Sparks, MD) and placed on solidified overlays. Cell growth was assessed after incubation at 30 °C for 48 h."}, "Y2766 OE CauCDR1": {"system": "Y2766 OE CauCDR1", "assay": "MIC80 determination, strain Y2766", "format": "cell-based, S. cerevisiae", "conditions": "Saccharomyces cerevisiae", "experimental": "Cells were seeded at an OD600 nm of 0.005 (1.5 × 10^4 CFU), and the plates were incubated at 30 °C with shaking at 200 rpm for 48 h for S. cerevisiae strains and 24 h for C. albicans . Cell growth was assessed by measuring the OD600 nm using a Synergy 2 multimode plate reader (BioTek Instruments, VT, USA). Each MIC80 was determined using triplicate measurements for pools of 4 clones of each strain in three separate experiments."}}}
{"molecule": "O=C(NCC(O)(Cn1cncn1)c1ccc(F)cc1F)c1ccc(-c2ccc(OC(F)(F)F)cc2)cc1", "note": "(centres unmarked) [Compound 22, N-(2-(2,4-Difluorophenyl)-2-hydroxy-3-(1H-1,2,4-triazol-1-yl)propyl)-4’-(trifluoromethoxy)-[1,1’-biphenyl]-4-carboxamide]", "values": [{"measurement": "zone of growth inhibition (inhibitory activity in words)", "setting": "[1]", "value": "high potency"}, {"measurement": "MIC80", "setting": "Y2766 OE CauCDR1", "value": 20.9, "unit": "µM"}]}
